Results taken from patent US12391737B2, “Soluble NPY2 receptor agonists” (Boehringer Ingelheim International GmbH, priority 2020, dated 2025).
pEC50, pKi: −log10 of the molar value.

Tests used:
[1] = molecular target: T1, human NPY2 receptor (hY2R) (Homo sapiens, UniProt P49146); assay: HTRF cAMP Gi assay, hY2R
T1 sequence (P49146 1-381): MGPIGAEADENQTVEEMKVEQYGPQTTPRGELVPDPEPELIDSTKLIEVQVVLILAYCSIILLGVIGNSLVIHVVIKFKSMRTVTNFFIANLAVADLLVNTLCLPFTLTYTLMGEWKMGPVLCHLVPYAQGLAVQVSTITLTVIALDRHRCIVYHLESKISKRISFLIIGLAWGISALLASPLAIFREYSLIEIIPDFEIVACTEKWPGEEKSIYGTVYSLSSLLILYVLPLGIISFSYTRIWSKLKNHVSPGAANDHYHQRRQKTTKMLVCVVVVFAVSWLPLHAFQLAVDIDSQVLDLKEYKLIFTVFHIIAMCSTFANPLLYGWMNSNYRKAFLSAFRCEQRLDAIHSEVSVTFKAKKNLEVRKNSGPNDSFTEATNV
Source text: The Homogenous Time Resolved fluorescence (HTRF) technology optimized for Gi coupled receptors has thoroughly been described in Cisbio cAMP Gi kit manual. Briefly, the production of intracellular cAMP will generate a competition between unlabeled cAMP and exogenously added d2-cAMP for anti-cAMP antibodies conjugated to cryptate. CHO-K1 cells stably expressing the human NPY1, NPY2, NPY4 and NPY5 receptors were used with the cells brought to life from a frozen stock immediately before assay performance. 2000 cells per well were applied for all four NPY receptor subtype assays. A 384-well format was used applying a total volume of 20 μl using 5 μl cells, 2.5 μl peptide agonist, 2.5 μl forskolin and 5 μl of each of the fluorophores. […] Concentration-response evaluation of compounds was performed with 11 concentrations of agonist peptides (covering 3 decades). EC50 values were calculated by nonlinear regression using sigmoid concentration-response with variable slope.

Solubility determination = details: for Sol6: pH 6; for Sol7: pH 7
How it was run: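 Sample: TFA-salt peptide at 10 mg/ml target in 0.1 M Na diphosphate, pH 6.4 or 7.0, shaken 2 h RT, filtered, diluted to 1 mg/ml.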

[2] = molecular target: T2, human NPY1 receptor (hY1R) (Homo sapiens, UniProt P25929); assay: HTRF cAMP Gi assay, hY1R; format: cell-based; details: CHO-K1 cells
T2 construct: expressed in transfected cells; host or cells: CHO-K1
T2 sequence (P25929 1-384): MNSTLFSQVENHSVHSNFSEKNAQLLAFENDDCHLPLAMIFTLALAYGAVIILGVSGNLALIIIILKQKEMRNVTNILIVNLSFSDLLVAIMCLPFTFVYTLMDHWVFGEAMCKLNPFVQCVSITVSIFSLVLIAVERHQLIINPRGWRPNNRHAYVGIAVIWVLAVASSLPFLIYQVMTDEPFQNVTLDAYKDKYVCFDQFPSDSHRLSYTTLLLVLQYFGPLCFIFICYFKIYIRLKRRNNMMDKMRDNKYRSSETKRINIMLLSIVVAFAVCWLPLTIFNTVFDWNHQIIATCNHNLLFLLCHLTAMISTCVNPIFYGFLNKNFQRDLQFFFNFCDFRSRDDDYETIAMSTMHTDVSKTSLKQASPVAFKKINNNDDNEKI

[3] = molecular target: T3, human NPY5 receptor (hY5R) (Homo sapiens, UniProt Q15761); assay: HTRF cAMP Gi assay, hY5R
T3 sequence (Q15761 1-445): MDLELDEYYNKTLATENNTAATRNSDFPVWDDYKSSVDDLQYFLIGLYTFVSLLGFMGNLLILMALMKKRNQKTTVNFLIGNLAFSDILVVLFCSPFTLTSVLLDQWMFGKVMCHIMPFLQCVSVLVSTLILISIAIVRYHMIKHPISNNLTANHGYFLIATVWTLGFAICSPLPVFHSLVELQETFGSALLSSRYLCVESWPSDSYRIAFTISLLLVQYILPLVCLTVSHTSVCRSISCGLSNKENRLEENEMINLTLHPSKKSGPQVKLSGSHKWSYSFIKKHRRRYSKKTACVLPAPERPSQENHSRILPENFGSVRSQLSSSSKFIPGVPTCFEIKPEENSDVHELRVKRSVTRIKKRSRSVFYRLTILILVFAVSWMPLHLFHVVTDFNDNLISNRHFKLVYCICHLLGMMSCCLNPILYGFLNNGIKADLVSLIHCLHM
Procedure: (§1) Briefly, the production of intracellular cAMP will generate a competition between unlabeled cAMP and exogenously added d2-cAMP for anti-cAMP antibodies conjugated to cryptate. CHO-K1 cells stably expressing the human NPY1, NPY2, NPY4 and NPY5 receptors were used with the cells brought to life from a frozen stock immediately before assay performance. 2000 cells per well were applied for all four NPY receptor subtype assays. A 384-well format was used applying a total volume of 20 μl using 5 μl cells, 2.5 μl peptide agonist, 2.5 μl forskolin and 5 μl of each of the fluorophores. […] Concentration-response evaluation of compounds was performed with 11 concentrations of agonist peptides (covering 3 decades). EC50 values were calculated by nonlinear regression using sigmoid concentration-response with variable slope.

[4] = molecular target: T4, human NPY4 receptor (hY4R) (Homo sapiens, UniProt P50391); assay: HTRF cAMP Gi assay, hY4R; format: cell-based; details: CHO-K1 cells
T4 construct: expressed in transfected cells; host or cells: CHO-K1
T4 sequence (P50391 whole entry): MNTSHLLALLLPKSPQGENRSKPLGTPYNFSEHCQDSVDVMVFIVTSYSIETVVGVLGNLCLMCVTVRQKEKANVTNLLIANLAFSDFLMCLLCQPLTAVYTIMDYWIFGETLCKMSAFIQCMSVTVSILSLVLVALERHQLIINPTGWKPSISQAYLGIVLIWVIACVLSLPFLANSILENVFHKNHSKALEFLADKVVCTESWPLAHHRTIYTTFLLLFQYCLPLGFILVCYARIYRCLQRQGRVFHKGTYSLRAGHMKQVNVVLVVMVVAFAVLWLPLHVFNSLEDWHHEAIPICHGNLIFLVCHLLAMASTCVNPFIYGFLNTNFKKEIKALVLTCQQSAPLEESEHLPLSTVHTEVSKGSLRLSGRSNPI
Procedure: as §1

[5] = molecular target: T5, Human Neuropeptide Y2 Receptor (Homo sapiens, UniProt P49146); assay: Radioligand binding competition assay (RLB); details: Table 3, 125I-PYY(1-36) competition; read-out: Ki
T5 construct: purchased CHEMICON HTS066M
T5 sequence (P49146 1-381): T1 sequence (P49146 1-381)
How it was run: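 Peptides were serially diluted from 1 mM DMSO stocks and competed for radioligand binding to receptor membranes (0.5 μg/well) over 2 h at room temperature, pH 7.4 HEPES buffer. Bound radioactivity on filters was counted by scintillation, and IC50 was derived by nonlinear regression.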

pEC50 [1]	Sol6 (Solubility determination) [mg/mL]	Sol7 (Solubility determination) [mg/mL]	pEC50 [2]	pEC50 [3]	pEC50 [4]	pKi [5]	SMILES
9.45	>10.0	>10.0	< 5.30	< 5.30	< 5.30	8.53	CC[C@H](C)[C@H](NC(=O)[C@H](CCC(=O)O)NC(=O)[C@H](CCC(=O)O)NC(=O)[C@H](CCC(=O)O)NC(=O)[C@H](CO)NC(=O)[C@H](C)NC(=O)[C@H](CC(=O)O)NC(=O)[C@H](CCC(=O)O)NC(=O)[C@H](CCC(=O)O)NC(=O)[C@@H]1CCCN1C(=O)[C@H](CCCCNC(=O)CCCCCNC(=O)CC[C@H](NC(=O)CCCCCCCCCCCCCCCCC(=O)O)C(=O)O)NC(=O)[C@H](CCC(=O)O)NC(=O)[C@@H]1CCCN1C(=O)[C@H](C)NC(=O)CC(C)C)C(=O)N[C@@H](CCC(N)=O)C(=O)N[C@@H](CCCNC(=N)N)C(=O)N[C@@H](Cc1ccc(O)cc1)C(=O)N[C@@H](Cc1ccc(O)cc1)C(=O)N[C@H](C(=O)N[C@@H](CO)C(=O)N[C@@H](CC(C)C)C(=O)N[C@@H](CCCNC(=N)N)C(=O)N[C@@H](Cc1c[nH]cn1)C(=O)N[C@@H](Cc1ccc(O)cc1)C(=O)N[C@@H](Cc1ccc(O)cc1)C(=O)N[C@@H](CC(N)=O)C(=O)N[C@@H](Cc1c[nH]c2ccccc12)C(=O)N[C@@H](CC(C)C)C(=O)N[C@H](C(=O)N[C@@H](CCCNC(=N)N)C(=O)N[C@@H](CCC(N)=O)C(=O)N[C@@H](CCCNC(=N)N)C(=O)N[C@@H](Cc1ccc(O)cc1)C(N)=O)[C@@H](C)O)C(C)C [Compound 55, N{alpha-4}-(3-methylbutanoyl)-N{epsilon-7}-(6-[(4S)-4-carboxy-4-(17-carboxyheptadecanamido)butanamido]hexanoyl)-[4A,7K,9E,14E,17I,18Q,22V,28Y,30W,31L]-hPYY(4-36)]
9.71	8.2	8.2	< 5.30	< 5.30	< 5.30	9.11	CC[C@H](C)[C@H](NC(=O)[C@H](Cc1ccc(O)cc1)NC(=O)[C@H](Cc1ccc(O)cc1)NC(=O)[C@H](CCCNC(=N)N)NC(=O)[C@H](CCC(N)=O)NC(=O)[C@@H](NC(=O)[C@H](CCC(=O)O)NC(=O)[C@H](CCC(=O)O)NC(=O)[C@@H]1CCCN1C(=O)[C@H](CO)NC(=O)[C@H](C)NC(=O)[C@H](CC(=O)O)NC(=O)[C@H](CCC(=O)O)NC(=O)[C@H](CCC(=O)O)NC(=O)[C@@H]1CCCN1C(=O)[C@H](CCCCNC(=O)CCCCCNC(=O)CC[C@H](NC(=O)CCCCCCCCCCCCCCCCC(=O)O)C(=O)O)NC(=O)[C@H](C)NC(=O)[C@@H]1CCCN1C(=O)[C@H](C)NC(=O)CC(C)C)[C@@H](C)CC)C(=O)N[C@@H](CO)C(=O)N[C@@H](CC(C)C)C(=O)N[C@@H](CCCNC(=N)N)C(=O)N[C@@H](Cc1c[nH]cn1)C(=O)N[C@@H](Cc1ccc(O)cc1)C(=O)N[C@@H](Cc1ccc(O)cc1)C(=O)N[C@@H](CC(N)=O)C(=O)N[C@@H](Cc1c[nH]c2ccccc12)C(=O)N[C@@H](CC(C)C)C(=O)N[C@H](C(=O)N[C@@H](CCCNC(=N)N)C(=O)N[C@@H](CCC(N)=O)C(=O)N[C@@H](CCCNC(=N)N)C(=O)N[C@@H](Cc1ccc(O)cc1)C(N)=O)[C@@H](C)O [Compound 195, N{alpha-4}-(3-methylbutanoyl)-N{epsilon-7}-(6-[(4S)-4-carboxy-4-(17-carboxyheptadecanamido)butanamido]hexanoyl)-[4A,6A,7K,9E,17I,18Q,22I,28Y,30W,31L]-hPYY(4-36)]
10.07	9.3	8.4		< 5.30		8.89	CC(C)CC(=O)N[C@@H](C)C(=O)N1CCC[C@H]1C(=O)N[C@@H](CCC(=O)O)C(=O)N[C@@H](CCCCNC(=O)CCCCCNC(=O)CC[C@H](NC(=O)CCCCCCCCCCCCCCCCC(=O)O)C(=O)O)C(=O)N1CCC[C@H]1C(=O)N1CCC[C@H]1C(=O)N[C@@H](CCC(=O)O)C(=O)N[C@@H](CC(=O)O)C(=O)N[C@@H](C)C(=O)N[C@@H](CO)C(=O)N1CCC[C@H]1C(=O)N[C@@H](CCC(=O)O)C(=O)N[C@@H](CCC(=O)O)C(=O)N[C@@H](CC(C)C)C(=O)N[C@@H](CCC(N)=O)C(=O)N[C@@H](CCCNC(=N)N)C(=O)N[C@@H](Cc1ccc(O)cc1)C(=O)N[C@@H](Cc1ccc(O)cc1)C(=O)N[C@H](C(=O)N[C@@H](CO)C(=O)N[C@@H](CC(C)C)C(=O)N[C@@H](CCCNC(=N)N)C(=O)N[C@@H](Cc1c[nH]cn1)C(=O)N[C@@H](Cc1ccc(O)cc1)C(=O)N[C@@H](Cc1ccc(O)cc1)C(=O)N[C@@H](CC(N)=O)C(=O)N[C@@H](Cc1c[nH]c2ccccc12)C(=O)N[C@@H](CC(C)C)C(=O)N[C@H](C(=O)N[C@@H](CCCNC(=N)N)C(=O)N[C@@H](CCC(N)=O)C(=O)N[C@@H](CCCNC(=N)N)C(=O)N[C@@H](Cc1ccc(O)cc1)C(N)=O)[C@@H](C)O)C(C)C [Compound 14, N{alpha-4}-(3-methylbutanoyl)-N{epsilon-7}-(6-[(4S)-4-carboxy-4-(17-carboxyheptadecanamido)butanamido]hexanoyl)-[4A,7K,9P,18Q,22V,28Y,30W,31L]-hPYY(4-36)]
10.07	8.4	9.8		< 5.30		8.45	CC(C)CC(=O)N[C@@H](C)C(=O)N1CCC[C@H]1C(=O)N[C@@H](CCC(=O)O)C(=O)N[C@@H](CCCCNC(=O)CCCCCNC(=O)CC[C@H](NC(=O)CCCCCCCCCCCCCCCCC(=O)O)C(=O)O)C(=O)N1CCC[C@H]1C(=O)N[C@@H](CCC(=O)O)C(=O)N[C@@H](C)C(=O)N[C@@H](CC(=O)O)C(=O)N[C@@H](C)C(=O)N[C@@H](CO)C(=O)N1CCC[C@H]1C(=O)N[C@@H](CCC(=O)O)C(=O)N[C@@H](CCC(=O)O)C(=O)N[C@@H](CC(C)C)C(=O)N[C@@H](CCC(N)=O)C(=O)N[C@@H](CCCNC(=N)N)C(=O)N[C@@H](Cc1ccc(O)cc1)C(=O)N[C@@H](Cc1ccc(O)cc1)C(=O)N[C@H](C(=O)N[C@@H](CO)C(=O)N[C@@H](CC(C)C)C(=O)N[C@@H](CCCNC(=N)N)C(=O)N[C@@H](Cc1c[nH]cn1)C(=O)N[C@@H](Cc1ccc(O)cc1)C(=O)N[C@@H](Cc1ccc(O)cc1)C(=O)N[C@@H](CC(N)=O)C(=O)N[C@@H](Cc1c[nH]c2ccccc12)C(=O)N[C@@H](CC(C)C)C(=O)N[C@H](C(=O)N[C@@H](CCCNC(=N)N)C(=O)N[C@@H](CCC(N)=O)C(=O)N[C@@H](CCCNC(=N)N)C(=O)N[C@@H](Cc1ccc(O)cc1)C(N)=O)[C@@H](C)O)C(C)C [Compound 196, N{alpha-4}-(3-methylbutanoyl)-N{epsilon-7}-(6-[(4S)-4-carboxy-4-(17-carboxyheptadecanamido)butanamido]hexanoyl)-[4A,7K,9E,10A,18Q,22V,28Y,30W,31L]-hPYY(4-36)]
